# In US8017629B2, “Compounds and uses thereof in modulating amyloid β” (Neurogenetic Pharmaceuticals, Inc., priority 2003, dated 2011):
# Test system: Aβ42 levels in the extracellular medium
# Assay: FRET (HTRF) assay, Aβ42 level of the extracellular medium of SH-SY5Y-APP cells
# Type: cell-based
# Conditions: Homo sapiens, concentration at which reduction of Aβ42 level was half of the maximum reduction, read-out: Ab42 Potency
# Procedure: Compounds were evaluated for activity in modulating Aβ42 and Aβ40 levels in the extracellular medium using a homogeneous time-resolved fluorescence (HTRF) assay as follows.
# For the HTRF assay, either 5 or 10 μl of supernatant from treated cells was added to 10 or 15 μl of labeled antibody pairs, for a total volume of 20 μl, and incubated for 20-24 hours at 4° C. The labeled antibody pairs were either 8000 pg B436-XL665 and 400 pg B113 Europium, for assessing Aβ40 levels, or 8000 pg B436-XL665 and 400 pg A387 Europium, for assessing Aβ42 levels, diluted in 50 mM NaPO4, 0.2% BSA, 0.5M KF, pH 7. The fluorescence was read on a BMG Rubystar at 620 nm and 665 nm.
row,EC50 [nM],Compound
1,1100 to 5000,CN1CCN(c2ccc(Nc3nc(-c4ccc(-n5ccnc5)cc4)cs3)c(C(F)(F)F)c2)CC1 [Compound 215]
2,1100 to 5000,CN1CCN(c2ccc(-c3csc(Nc4ccc(Oc5ccccc5)cc4)n3)cc2)CC1 [Compound 142]
3,10100 to 30000,CC(C)N(c1ccccc1)c1ccc(Nc2nc(-c3ccncc3)cs2)cc1 [Compound 169]
4,200 to 1000,CN1CCN(c2ccc(-c3csc(Nc4cccc(Cl)c4)n3)cc2)CC1 [Compound 151]
5,10100 to 30000,Cc1cc(C)cc(Nc2nc(-c3ccc(-n4cnc(-c5ccccc5)c4)cc3)cs2)c1 [Compound 178]
6,5100 to 10000,Cc1cc(NCc2ccccn2)ccc1Nc1nc(-c2ccc(-n3ccnc3)cc2)cs1 [Compound 208]
7,5100 to 10000,CSc1cccc(Nc2nc(-c3ccc(-n4cnc(Br)c4)cc3)cs2)c1 [Compound 266]
8,1100 to 5000,CCc1cccc(Nc2nc(-c3ccc(N4CCN(C)CC4)cc3)cs2)c1 [Compound 234]
9,1100 to 5000,CN1CCN(c2ccc(-c3csc(Nc4ccc5c(c4)OCCO5)n3)cc2)CC1 [Compound 134]
10,1100 to 5000,CN1CCN(c2ccc(-c3csc(Nc4ccc5[nH]cnc5c4)n3)cc2)CC1 [Compound 155]
11,1100 to 5000,CCc1cc(N2CCN(C)CC2)ccc1Nc1nc(-c2ccc(-n3ccnc3)cc2)cs1 [Compound 240]
12,200 to 1000,CSc1cccc(Nc2nc(-c3ccc(N4CCCC4)cc3)cs2)c1 [Compound 166]
13,200 to 1000,CN1CCN(c2ccc(-c3csc(Nc4ccc5c(c4)OCO5)n3)cn2)CC1 [Compound 328]
14,1100 to 5000,CCN1CCN(c2ccc(-c3csc(Nc4ccc5c(c4)OCO5)n3)cc2)CC1 [Compound 162]
15,1100 to 5000,Cc1ccc(-n2cccc2)cc1Nc1nc(-c2ccc(N3CCN(C)CC3)cc2)cs1 [Compound 323]
16,1100 to 5000,CN1CCN(c2ccc(-c3csc(Nc4cccc5cccnc45)n3)cc2)CC1 [Compound 128]
17,10100 to 30000,CCOc1ccc(Nc2nc(-c3ccc(N4CCN(C)CC4)cc3)cs2)cc1 [Compound 136]
18,1100 to 5000,CN1CCN(c2ccc(-c3csc(Nc4ccc5c(c4)OCO5)n3)cc2)CC1 [Compound 115]
19,1100 to 5000,COc1cc(Nc2nc(-c3ccc(N4CCN(C)CC4)cc3)cs2)cc(OC)c1OC [Compound 116]
20,1100 to 5000,CCc1cc(N2CCOCC2)ccc1Nc1nc(-c2ccc(-n3ccnc3)cc2)cs1 [Compound 239]
21,200 to 1000,CN1CCN(c2ccc(-c3csc(Nc4cccc5ccccc45)n3)cn2)CC1 [Compound 333]
22,200 to 1000,Cc1ccc(N2CCSCC2)cc1Nc1nc(-c2ccc(-n3ccnc3)cc2)cs1 [Compound 254]
23,1100 to 5000,CCOc1cc(C)c(Nc2nc(-c3ccc(N4CCN(C)CC4)cc3)cs2)cc1C [Compound 322]
24,1100 to 5000,CSc1cccc(Nc2nc(-c3ccc(N4CCN(C)CC4)cc3)cs2)c1 [Compound 145]

# More lines, now with the values behind:
row,Compound,EC50 [nM]
1,CCN(CC)c1cc(Nc2nc(-c3cnc(-n4cnc(C)c4)nc3)cs2)c(C)cc1C [Compound 343],< 200
2,Cc1cc(C)c(Nc2nc(-c3ccc(-n4cnc(C)c4)cc3)cs2)c(C)c1 [Compound 250],200 to 1000
3,CCN(c1ccc(N2CCCCC2)cc1)c1nc(-c2ccc(-n3ccnc3)cc2)cs1 [Compound 184],1100 to 5000
4,Cc1cc(C)c(Nc2nc(-c3ccc(-n4cnc(Br)c4)cc3)cs2)cc1C [Compound 236],200 to 1000
5,COc1cc(Nc2nc(-c3ccc(-c4ccccn4)s3)cs2)cc(OC)c1OC [Compound 106],5100 to 10000
6,CCCN(C)c1ccc(C)c(Nc2nc(-c3ccc(-n4cnc(C)c4)cc3)cs2)c1 [Compound 348],< 200
7,COc1ccc(OC)c(Nc2nc(-c3ccc(-n4cnc(C)c4)cc3)cs2)c1 [Compound 264],200 to 1000
8,COc1ccc(Nc2nc(-c3ccc(-n4ccnc4)cc3)co2)cc1 [Compound 340],1100 to 5000
9,COc1cc(C)c(Nc2nc(-c3ccc(-n4ccnc4)cc3)cs2)cc1C(C)C [Compound 294],< 200
10,CCN(CC)c1ccc(Nc2nc(-c3ccc(-n4cc(C(C)O)nn4)cc3)cs2)c(C)c1 (centres unmarked) [Compound 275],1100 to 5000
11,CCN(CC)CCN(C)c1ccc(Nc2nc(-c3ccc(-n4ccnc4)cc3)cs2)c(C)c1 [Compound 210],1100 to 5000
12,N#Cc1ccc(-c2csc(Nc3cc(Cl)cc(Cl)c3)n2)cc1 [Compound 211],10100 to 30000
13,FC(F)(F)c1cc(NCCN2CCCC2)ccc1Nc1nc(-c2ccc(-n3ccnc3)cc2)cs1 [Compound 222],1100 to 5000
14,CCN(CC)c1ccc(Nc2nc(-c3ccc(-n4cnc(C)c4)cc3OC)cs2)c(C)c1 [Compound 190],200 to 1000
15,Clc1ccc(Nc2nc(-c3ccc(-n4cnc(Cl)c4Cl)cc3)cs2)cc1Cl [Compound 186],1100 to 5000
16,COc1ccc(-c2csc(Nc3cccc(Cl)c3)n2)c(OC)c1 [Compound 153],5100 to 10000
17,CCN(CCO)c1ccc(Nc2nc(-c3ccc(-n4cnc(C)c4)cc3C(F)(F)F)c(C)s2)c(C)c1 [Compound 206],5100 to 10000
18,CCN(CC)c1ccc(N(CC)c2nc(-c3ccc(-n4cnc(C)c4)cc3)cs2)c(C)c1 [Compound 273],200 to 1000
19,Cc1ccc(C)c(Nc2nc(-c3ccc(-n4cnc(C)c4)nc3)cs2)c1 [Compound 185],< 200

row,Compound,EC50 [nM]
1,COc1cc(C)c(Nc2nc(-c3ccc(-n4cc(C)cn4)cc3)cs2)cc1C(C)C [Compound 308],200 to 1000
2,COc1cc(C)c(Nc2nc(-c3ccc(-n4cnc(C)c4)cc3)cs2)cc1OC [Compound 267],1100 to 5000
3,CCN(CCOC)c1ccc(Nc2nc(-c3ccc(-n4cnc(C)c4)nc3)cs2)c(C)c1 [Compound 261],200 to 1000
4,CCN(CC)c1ccc(Nc2nc(-c3ccc(-n4ccnc4)cc3)cs2)c(C)c1 [Compound 133],200 to 1000
5,Cc1cn(-c2ccc(-c3nc(Nc4cc(C)c(C)cc4C)sc3C)cc2)cn1 [Compound 242],200 to 1000
6,Cc1cc(C)c(Nc2nc(-c3ccc(-n4nccn4)cc3)cs2)cc1C [Compound 244],1100 to 5000
7,CCN(CC)c1ccc(C)c(Nc2nc(-c3cnc(-n4cnc(C)c4)nc3)cs2)c1 [Compound 341],< 200
8,COc1cc(-n2cnc(C)c2)ccc1-c1csc(Nc2cc(C)c(C)cc2C)n1 [Compound 263],200 to 1000
9,Cc1cn(-c2ccc(-c3csc(Nc4cc(-n5cccc5)ccc4C)n3)cc2)cn1 [Compound 293],200 to 1000
10,Cc1cn(-c2ccc(-c3csc(Nc4cc(C(C)C)ccc4C)n3)cn2)cn1 [Compound 327],< 200
11,Cc1cn(-c2ccc(-c3csc(Nc4cc(N5CCSCC5)ccc4C)n3)cn2)cn1 [Compound 281],< 200
12,CNCCN(C)c1ccc(Nc2nc(-c3ccc(-n4ccnc4)cc3)cs2)c(C(F)(F)F)c1 [Compound 224],1100 to 5000
13,COc1ccc(-c2nc(Nc3cc(Cl)c(Cl)cc3Cl)sc2CC(=O)O)cc1 [Compound 187],1100 to 5000
14,Cc1ccc(C)c(Nc2nc(-c3ccc(-n4cnc(C)c4)cc3)cs2)c1 [Compound 303],< 200
15,CCN(CCO)c1ccc(Nc2nc(-c3ccc(-n4cnc5ccccc54)cc3)cs2)c(C)c1 [Compound 228],5100 to 10000
16,Cc1cn(-c2ccc(-c3csc(Nc4cc(Cl)c(Cl)cc4Cl)n3)cc2)cn1 [Compound 237],200 to 1000
17,Cc1ccc(N(C)C)cc1Nc1nc(-c2ccc(-n3ccnc3)cc2)cs1 [Compound 259],200 to 1000
18,CCOc1cc(C)c(Nc2nc(-c3ccc(-n4cnc(C)c4)cc3)cs2)cc1C [Compound 271],< 200
19,CCN(CC)c1ccc(C)c(Nc2nc(-c3ccc(-n4cc(C)cn4)cc3)cs2)c1 [Compound 307],1100 to 5000

row,Compound,EC50 [nM]
1,CCOc1cc(C)c(Nc2nc(-c3ccc(-n4ccnc4)nc3)cs2)cc1C [Compound 318],< 200
2,CCN(CC)c1ccc(F)c(Nc2nc(-c3ccc(-n4cnc(C)c4)cc3)cs2)c1 [Compound 313],< 200
3,CS(=O)(=O)c1ccc(-c2csc(Nc3c(Cl)cc(Cl)cc3Cl)n2)cc1 [Compound 214],10100 to 30000
4,CCN(CC)c1ccc(Nc2nc(-c3ccc(-n4cnc(C)c4)nc3)cs2)c(C)c1 [Compound 247],< 200
5,CCN(CC)c1ccc(Nc2nc(-c3ccc(-n4cnc(C)c4)cc3C(F)(F)F)c(C)s2)c(C)c1 [Compound 205],1100 to 5000
6,CCOc1cc(C)c(Nc2nc(-c3ccc(-n4ccnc4)cc3)cs2)cc1C [Compound 290],< 200
7,Cc1cn(-c2ccc(-c3csc(Nc4cc(CO)ccc4C)n3)cc2)cn1 [Compound 299],200 to 1000
8,Cc1cn(-c2ccc(-c3csc(Nc4cc(CO)ccc4C)n3)cn2)cn1 [Compound 300],200 to 1000
9,CCN(CC)c1ccc(-c2csc(Nc3ccc(OC)cc3OC)n2)cc1 [Compound 122],1100 to 5000
10,Cc1cn(-c2ccc(-c3csc(Nc4cc(N5CCOCC5)ccc4C)n3)cn2)cn1 [Compound 276],< 200
11,Cc1cn(-c2ccc(-c3csc(Nc4cc(N(C)CC5CC5)ccc4C)n3)cc2F)cn1 [Compound 315],< 200
12,CSc1cccc(Nc2nc(-c3ccc4c(c3)OCCO4)cs2)c1 [Compound 167],5100 to 10000
13,CCN(CC)c1cc(Nc2nc(-c3ccc(-n4cnc(C)c4)cc3)cs2)c(C)cc1C [Compound 288],< 200
14,CCN(CC)c1cc(Nc2nc(-c3ccc(-n4ccnc4)cc3)cs2)c(C)cc1C [Compound 291],< 200
15,Cc1cn(-c2ccc(-c3csc(Nc4cc(C)c(C)cc4C)n3)cc2)cn1 [Compound 235],200 to 1000
16,CCN(CC)c1cc(C)c(Nc2nc(-c3ccc(-n4ccnc4)cc3)cs2)cc1C [Compound 292],< 200
17,Cc1cn(-c2ccc(-c3nc(Nc4cc(Cl)c(Cl)cc4Cl)sc3C)cc2)cn1 [Compound 245],1100 to 5000
18,CCc1cn(-c2ccc(-c3csc(Nc4ccc(N(CC)CC)cc4C)n3)cc2)cn1 [Compound 272],200 to 1000
